Entries after “also recorded” stand apart in the source; their conditions may differ.
Experiments:
male Wistar rats [1] = assay: Open field test (OFT); format: in vivo
Description: OFT was performed in a black square plastic arena (80 × 80 × 40 cm) in an evenly lit and sound-proof testing room. Rats were individually placed into the centre and allowed to explore the arena for 30 min while their behaviour was recorded. The experimental arena was cleaned with 70% ethanol after each subject. Arena was virtually divided into a 5 × 5 grid of identical squares; 16 squares were located next to the walls (peripheral zone) and 9 squares were in the centre (central zone). Software EthoVision XT 14.0 software (Noldus, Netherlands) was used to capture raw data used in the calculation of the following dependent variables: trajectory length (cm; corrected for deviations of <3 cm) and its temporal dynamics in 5 min intervals; thigmotaxis (∑fperipheral zones/∑fall zones, f = frequency of appearance in the zone) reflecting the probability of appearance in the peripheral zone; Tcenter reflecting time spent in the centre of the arena (∑timecentral zones).
(§1) Locomotor activity in OFT (mean trajectory length across 5 min blocks) was evaluated using a 2 × 4 × 6 mixed factorial ANOVA with temporal testing onset (15 or 60 min) and drug treatment (2C-B-Fly-NBOMe 0.2, 1, or 5 mg/kg or ctrl) as between-subjects factors, and time blocks (6 × 5 min intervals) as a within-subjects factor. Spatial distribution of animal movement in OFT (thigmotaxis and T center) and PPI parameters (habituation, ASR and % of PPI) were each analysed using a 2 × 4 factorial ANOVA with temporal testing onset (15 or 60 min) and drug treatment (2C-B-Fly-NBOMe 0.2, 1, or 5 mg/kg or ctrl) as between-subjects factors.

male Wistar rats [2] = assay: Prepulse inhibition (PPI) of acoustic startle response (ASR); format: in vivo
Description: The effect of 2C-B-Fly-NBOMe on sensorimotor gating was evaluated by a PPI of ASR test. Two identical startle chambers (SR-LAB, San Diego Instruments, California) were used, each containing a sound-proof, evenly lit and ventilated enclosure with a plexiglass stabilimeter (8.7 cm inner diameter), a piezoelectric accelerometer for detecting amplitudes of the ASR, and a high-frequency loudspeaker producing acoustic stimuli. Amplitudes of the ASR were digitized for subsequent analysis. The experimental design was based on our previous studies ([Štefková et al., 2017]; [Šíchová et al., 2018]). Two days before the experiment, the animals were habituated to the startle chambers with a background white noise (75 dB) for 5 min, followed by six presentations of pulse-alone stimuli (125 dB, 40 ms) with pseudorandomized inter-stimulus intervals. […]
Habituation was calculated by the percentage reduction in the ASR from the initial six baseline trials to the final six trials. PPI was calculated as [100 - (mean response for the prepulse - pulse trial/startle response for the single pulse trials) × 100]. […]
as §1

male Wistar rats [3] = assay: Observation of 5-HT2A-related behaviour (head-twitch response, wet dog shakes); conditions: rat, in vivo
[4] = ref Richter et al. (2020); cited from earlier work
[5] = 0.2, 1 and 5 mg/kg s. c., 15 and 60 min onset

Question: With `COc1ccccc1CNCCc1c2c(c(Br)c3c1OCC3)OCC2` [2C-B-Fly-NBOMe] as the molecule, how does the “Tcentre (time spent in the centre of the arena)” value (male Wistar rats [1]; [5]) read?
Answer: not affected

Question: What about the thigmotaxis (male Wistar rats [1]; [5]) of the same molecule?
Answer: not affected

Question: What about the “total trajectory length (locomotor activity) versus ctrl” value (male Wistar rats [1]; 0.2, 1 and 5 mg/kg s. c., 15 and 60 min testing onset) of the same molecule?
Answer: dose-dependently reduced; also recorded: significant differences in all remaining groups versus ctrl except for 0.2 mg/kg of 2C-B-Fly-NBOMe in the 60 min onset

Question: What about the Locomotor habituation (male Wistar rats [1]; 0.2, 1 and 5 mg/kg s. c., both testing onsets) of the same molecule?
Answer: dose-dependently disturbed

Question: And the “locomotion in 5 min time blocks versus ctrl” value (male Wistar rats [1]; 15 min onset, 1 mg/kg s. c., p < 0.05)?
Answer: persisted until the fourth block

Question: And the “locomotion in 5 min time blocks versus ctrl” value (male Wistar rats [1]; 15 min onset, 5 mg/kg s. c., p < 0.05–0.001)?
Answer: significant hypolocomotion during the whole session

Question: What about the “locomotion in 5 min time blocks versus ctrl” value (male Wistar rats [1]; 15 min onset, all the doses (0.2, 1, 5 mg/kg s. c.), p < 0.001) of the same molecule?
Answer: significantly decreased activity in the first three blocks

Question: And the “locomotion in 5 min time blocks versus ctrl” value (male Wistar rats [1]; 60 min onset, 1 mg/kg and 5 mg/kg groups, p < 0.01–0.001)?
Answer: persisted to the fifth block

Question: What about the “locomotion in 5 min time blocks versus ctrl” value (male Wistar rats [1]; 60 min onset, all groups (0.2, 1, 5 mg/kg s. c.), p < 0.05–0.001) of the same molecule?
Answer: reduced activity in the first two blocks

Question: And the “percentage of PPI” value (male Wistar rats [2]; 0.2, 1 and 5 mg/kg s. c., ANOVA treatment factor)?
Answer: not by treatment

Question: And the “Habituation of ASR” value (male Wistar rats [2]; 0.2, 1 and 5 mg/kg s. c., p < 0.05)?
Answer: significantly affected by drug treatment

Question: What about the ASR versus ctrl (male Wistar rats [2]; all doses (0.2, 1, 5 mg/kg s. c.), 15 and 60 min onset, p < 0.001) of the same molecule?
Answer: strongly disrupted; also recorded: significantly diminished ASR; also recorded: strongly attenuates ASR

Question: And the “behaviour typical of 5-HT2A receptor activation (head-twitch response or wet dog shakes)” value (male Wistar rats [3])?
Answer: did not demonstrate any behaviour

Question: And the “number of phase I metabolites” value [4]?
Answer: five

Question: What about the “number of phase II metabolites” value [4] of the same molecule?
Answer: one
